PubChem BioAssay AID449750 (Broad Institute, 2010)
The source made the active and inactive calls. The rule behind the calls is not given here.

Experiment: non-covalent RecA intein splicing inhibitors, dose response, biochemical, cell-free, fluorescence, secondary screen (AID 449750)
For `O=C1C(Cl)=C(NS(=O)(=O)c2ccc([N+](=O)[O-])cc2)C(=O)c2ccccc21`, the AC50 was 10.3 µM.
In the case of `O=C(Nc1ncc([N+](=O)[O-])s1)c1ccco1`, the AC50 is reported as > 38 µM (inactive).
`CN1C(=O)/C(=C/c2ccc(-c3ccccc3[N+](=O)[O-])o2)SC1=Nc1ccc(Cl)c(C(=O)O)c1` showed an AC50 of 17.1 µM.
With `CCCCCC(=O)Cc1cc(O)cc2c1C(=O)Oc1cc(O)c(C(=O)O)c(CCCCC)c1O2` the AC50 was 6.09 µM.
`COc1cc(/C=C2/C(=O)N(c3cccc(Br)c3)N=C2C)cc(OC)c1O` gave an AC50 of 9.46 µM.
Compound `Clc1ccc(-c2nnc(Sc3nc4ccccc4o3)c3ccccc23)cc1` has an AC50 of 7.15 µM.
Compound `Cc1[nH][nH]c(=O)c1C(c1ccc(Br)cc1)c1c(C)[nH][nH]c1=O` has an AC50 of 11.1 µM.
`COc1cc(C(c2c(C)[nH][nH]c2=O)c2c(C)[nH][nH]c2=O)cc([N+](=O)[O-])c1O` gave an AC50 of 10.7 µM.
With `O=C1c2cc([N+](=O)[O-])ccc2-c2ncccc21` the AC50 was > 38 µM (inactive).
With `Cc1nc2c(=O)n(C)c(=O)n(C)c2nc1Cl` the AC50 was > 38 µM (inactive).
For `O=C(CCS(=O)NCc1ccccc1)NCc1ccccc1` (stereo unspecified), the AC50 was > 38 µM (inactive).
With `Cc1ccc(SCC2=NNC(=O)C2)cc1` the AC50 was 31.5 µM.
For `O=c1[nH]c(Nc2ccccc2)cc2cc(Br)ccc12`, the AC50 was 7 µM.
In the case of `CCOC(=O)C1(CCOc2ccccc2)CCN(Cc2ccc(O)c(Cl)c2)CC1`, the AC50 is reported as > 38 µM (inactive).
`Cc1ccc(NC(=O)COc2cccc(/C=C3\SC(=S)N(CCC(=O)O)C3=O)c2)cc1Cl` gave an AC50 of 10.2 µM.
For `CC(C)(C)c1cc(NC(=O)CCl)n(-c2ccccc2)n1`, the AC50 was 22.2 µM.
In the case of `CC(=O)Nc1ccc(NC(=O)CSc2ncc(C(=O)Nc3ccc(F)cc3)c(=O)n2C)cc1`, the AC50 is reported as > 38 µM (inactive).
Work on `Cc1cc(=O)n(-c2ccccc2Cl)[nH]1` yielded an AC50 of 22.3 µM.
In the case of `CCc1nnc(NC(=O)c2nc(S(=O)(=O)Cc3cccc(C)c3)ncc2Cl)s1`, the AC50 is reported as > 38 µM (inactive).
With `CSc1nc(-c2ccc(Cl)cc2)nn1C(=O)c1ccco1` the AC50 was > 38 µM (inactive).
For `NC(=O)c1c(-c2cccs2)csc1N`, the AC50 was > 38 µM (inactive).
For `O=C1C=C(Nc2ccccc2C(=O)O)c2ccccc2C1=O`, the AC50 was 6.57 µM.
With `O=c1[nH]c(O)c(N=Nc2cc([N+](=O)[O-])ccc2O)c(=O)[nH]1` the AC50 was 2.29 µM.
For `CCCc1[nH]nc2c1C(c1ccc(OCCN3CCOCC3)c(OC)c1)C(C#N)=C(N)O2` (stereo unspecified), the AC50 was > 38 µM (inactive).
Compound `O=c1cc(-c2ccc(F)cc2)[nH][nH]1` has an AC50 of 17.2 µM.
For `Nc1ccccc1S(=O)(=O)NC1=NCCCCC1`, the AC50 was > 38 µM (inactive).
In the case of `CC(=O)NC(=S)c1c(N)n(Cc2ccccc2)c(=O)n(C)c1=O`, the AC50 is reported as > 38 µM (inactive).
With `c1ccc(Nc2nc(NCc3ccco3)c3ccccc3n2)cc1` the AC50 was 10.8 µM.
`O=C(O)C1Nc2c(O)cc(Cl)c([N+](=O)[O-])c2C2C=CCC12` (stereo unspecified) showed an AC50 of 10.9 µM.
In the case of `CC1(C)Cc2ccccc2C2=NNC(=O)C2=N1`, the AC50 is reported as 11 µM.
For `O=C1C(Nc2ccc(O)cc2)=C/C(=N/S(=O)(=O)c2cccs2)c2ccccc21`, the AC50 was 0.179 µM.
With `COc1ccc(CC(=O)O/N=C(\N)Cc2cccc3ccccc23)cc1OC` the AC50 was > 38 µM (inactive).
`O=C(Nc1nc(-c2ccccc2)cs1)c1ccccc1NS(=O)(=O)c1ccc(F)cc1` showed an AC50 of 8.16 µM.
Compound `Cc1cc(C(=O)N/N=C/c2c(C)[nH]n(-c3ccccc3)c2=O)n[nH]1` has an AC50 of 3.74 µM.
In the case of `CCc1ccc2c(c1)C(NC(C)=O)C(=O)N2CCN1CCOCC1` (stereo unspecified), the AC50 is reported as 37 µM.
With `CNC(=O)c1nnsc1S(=O)c1ccc(Cl)cc1` (stereo unspecified) the AC50 was > 38 µM (inactive).
With `COc1cc(C2NC(=O)C(C#N)=C(Nc3cccc(C)c3)S2)ccc1O` (stereo unspecified) the AC50 was 3.17 µM.
For `COc1cc(C(=O)NCC(=O)N/N=C/c2cccc(OC(=O)c3ccco3)c2)cc(OC)c1OC`, the AC50 was > 38 µM (inactive).
Work on `COc1cc(OC)cc(-c2nnc(Sc3ccc(C=O)cc3[N+](=O)[O-])o2)c1` yielded an AC50 of 21.3 µM.
`CCn1c(Cl)c(C=O)s/c1=N\S(=O)(=O)c1ccccc1` showed an AC50 of 2.44 µM.
For `Cc1ccc(Cn2ncc(Cl)c(Cl)c2=O)cc1`, the AC50 was 22 µM.
For `Cc1cccc(Cn2nnc3c2C(=O)c2ccccc2C3=O)c1`, the AC50 was 28.7 µM.
In the case of `COc1cc(C(c2c(C)[nH][nH]c2=O)c2c(C)[nH][nH]c2=O)ccc1OS(=O)(=O)c1ccccc1`, the AC50 is reported as 9.54 µM.
With `Cc1ccc(NC(=O)c2nc(S(=O)(=O)Cc3ccccc3)ncc2Cl)cc1` the AC50 was > 38 µM (inactive).
For `Cc1cc(C(c2ccc(O)cc2)c2cc(C)c(O)cc2C)c(C)cc1O`, the AC50 was 4.95 µM.
In the case of `O=[N+]([O-])c1c(NCCCO)cc(SCc2ccco2)c2nonc12`, the AC50 is reported as > 38 µM (inactive).
In the case of `O=C(NC1C(=O)NNC1c1ccc(Cl)cc1)c1ccc(F)cc1` (stereo unspecified), the AC50 is reported as > 38 µM (inactive).
In the case of `O=C(c1c[nH]c(C(=O)C(Cl)(Cl)Cl)c1)c1ccccc1Br`, the AC50 is reported as 24.8 µM.
For `CCOC(=O)c1ccc(NC2=CC(=O)C(=O)c3ccccc32)cc1`, the AC50 was > 38 µM (inactive).
With `COc1ccc(-c2cc(C(=O)n3cnc4ccccc43)c3ccccc3n2)cc1` the AC50 was > 38 µM (inactive).
`CC(=O)c1cc(O)c2ccccc2c1O` showed an AC50 of 13.3 µM.
With `COc1ccccc1NC1=C(Cl)C(=O)OC1OC(=O)c1ccco1` (stereo unspecified) the AC50 was > 38 µM (inactive).
For `COc1ccc(N2C(=O)CC(N(CCc3ccccc3)C(=O)/C=C/C(=O)O)C2=O)cc1` (stereo unspecified), the AC50 was > 38 µM (inactive).
In the case of `O=C(O)c1ccc(S(=O)(=O)/N=C2\C=C(Nc3ccccc3F)C(=O)c3ccccc32)cc1`, the AC50 is reported as 0.229 µM.
`COCc1[nH]nc2c1C(c1ccc(OC)cc1)C(C#N)=C(N)O2` (stereo unspecified) showed an AC50 of 32.2 µM.
With `COc1ccc(C=C(c2nc3ccccc3s2)c2nc3ccccc3s2)cc1O` the AC50 was 3.04 µM.
For `Cc1[nH][nH]c(=O)c1C(c1ccc2c(c1)OCO2)c1c(C)[nH][nH]c1=O`, the AC50 was 19 µM.
With `COc1ccc(NC(=O)/C(Cl)=C(/Cl)S(=O)Cc2ccccc2)cn1` (stereo unspecified) the AC50 was > 38 µM (inactive).
`CCOC(=O)C(Nc1ccc2ccccc2c1)C(=O)OCC` showed an AC50 of 38.5 µM.
Compound `O=C(N/N=C1\C/C(=N\NC(=O)c2ccncc2)c2ccccc21)c1ccncc1` has an AC50 of 17.3 µM.
Compound `Cc1ccc(-n2[nH]c(C)c(/C=N/NC(=O)c3ccc([N+](=O)[O-])cc3)c2=O)c(C)c1` has an AC50 of 5.27 µM.
For `Cc1nn(-c2ccccc2)c(Cl)c1/C=C1\SC(=S)N(CCCCCC(=O)O)C1=O`, the AC50 was 14.8 µM.
With `CC1=NNC(=O)C1Cc1ccccc1C` (stereo unspecified) the AC50 was > 38 µM (inactive).
Work on `CCNC1=C(Cl)C(=O)c2ccccc2C1=O` yielded an AC50 of 22.3 µM.
With `CC/C(=C/c1sc2ccc(C)cc2[n+]1CCO)SC` the AC50 was > 38 µM (inactive).
`O=C(NC1CCCCC1)C(c1cccnc1)N(C(=O)CCl)c1ccc(F)cc1` (stereo unspecified) showed an AC50 of 5.58 µM.
Compound `CCOc1c(Br)cc(/C=C2\C(=O)N(CCC#N)N=C2C)cc1OC` has an AC50 of 11.1 µM.
`Cc1ccc(-n2nc(C)c3c2OC(N)=C(C#N)C3c2ccc(F)cc2)cc1` (stereo unspecified) showed an AC50 of 26.5 µM.
For `COc1cc(-n2nc(C)c3c2OC(N)=C(C#N)C3c2ccccc2)c(Cl)c(Br)c1O` (stereo unspecified), the AC50 was 16 µM.
With `Cc1cccc(CS(=O)(=O)c2ncc(Cl)c(C(=O)Nc3c(C)cccc3C)n2)c1` the AC50 was > 38 µM (inactive).
Work on `O=c1cc(-c2ccc(Cl)cc2)[nH][nH]1` yielded an AC50 of 14.2 µM.
In the case of `CCSc1nnc(NC(=O)c2nc(S(=O)(=O)Cc3ccc(F)cc3)ncc2Cl)s1`, the AC50 is reported as > 38 µM (inactive).
`O=C(OCn1ncc(Cl)c(Cl)c1=O)c1ccc(C(F)(F)F)cc1` gave an AC50 of 3.99 µM.
With `COc1cc(/C=N\NC(=O)c2ccccc2F)ccc1Oc1ccc([N+](=O)[O-])cn1` the AC50 was > 38 µM (inactive).
For `CC(=O)N(Cc1ccc(F)cc1)C1=C(NCCc2ccccc2)C(=O)c2ccccc2C1=O`, the AC50 was 7.58 µM.
For `CCOC(=O)c1cnc(-n2[nH]c(C)c(Cc3ccccc3)c2=O)[nH]c1=O`, the AC50 was > 38 µM (inactive).
